From US12606552B2, “Bifunctional compound, preparation method therefor, and use thereof” (SUZHOU KINTOR PHARMACEUTICALS, INC., priority 2020, dated 2026) come the findings set out here.

SMILES strings stand for the structures. Where only a bound is given, the exact number is not on record here.

The test addresses T1, AR (Homo sapiens, UniProt P10275, T878A).
T1 sequence (P10275 1-920 T878A): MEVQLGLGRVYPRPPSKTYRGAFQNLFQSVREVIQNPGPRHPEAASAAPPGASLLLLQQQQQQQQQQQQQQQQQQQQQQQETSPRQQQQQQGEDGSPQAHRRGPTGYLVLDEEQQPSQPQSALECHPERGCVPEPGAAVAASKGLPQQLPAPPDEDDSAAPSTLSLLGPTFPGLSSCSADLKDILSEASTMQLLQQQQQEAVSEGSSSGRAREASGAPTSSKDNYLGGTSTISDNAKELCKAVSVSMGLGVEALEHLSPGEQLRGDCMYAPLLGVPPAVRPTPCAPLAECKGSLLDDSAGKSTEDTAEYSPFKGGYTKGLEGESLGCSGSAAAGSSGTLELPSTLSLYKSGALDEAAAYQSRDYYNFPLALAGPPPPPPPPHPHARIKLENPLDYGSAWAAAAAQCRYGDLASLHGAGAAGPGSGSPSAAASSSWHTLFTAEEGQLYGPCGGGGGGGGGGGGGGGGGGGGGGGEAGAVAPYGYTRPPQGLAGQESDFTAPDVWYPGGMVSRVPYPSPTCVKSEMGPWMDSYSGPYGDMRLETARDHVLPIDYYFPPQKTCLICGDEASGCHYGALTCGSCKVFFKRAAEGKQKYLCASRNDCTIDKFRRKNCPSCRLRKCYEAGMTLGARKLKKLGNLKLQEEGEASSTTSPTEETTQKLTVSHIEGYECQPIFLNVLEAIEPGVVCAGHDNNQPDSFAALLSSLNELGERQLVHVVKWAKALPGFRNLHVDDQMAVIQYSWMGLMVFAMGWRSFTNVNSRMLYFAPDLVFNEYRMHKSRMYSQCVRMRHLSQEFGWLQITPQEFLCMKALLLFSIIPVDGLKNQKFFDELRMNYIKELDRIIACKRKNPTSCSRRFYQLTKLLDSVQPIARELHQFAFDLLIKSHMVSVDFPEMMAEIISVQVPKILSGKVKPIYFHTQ
The test is described as follows: Effects of compounds on AR expression in LNCaP cells (ELISA, DC50). The format is cell-based. Conditions: 24 hours of drug treatment, AR by ELISA. Details: Measurement of the Effects of Drugs on the Expression of AR in Cells by ELISA Method; endogenous in cells; host or cells: LNCaP. In short, it runs like this:
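LNCaP cells at about 15,000/well were treated for 24 h with compound at 0.0001–2 μmol/L final. AR in cell lysates was measured by ELISA (OD450). Inhibition was relative to DMSO control after blank subtraction, and DC50 was calculated from it.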
In general terms: ELISA stands for enzyme-linked immunosorbent assay.
As to `Cc1cc(C(C(=O)N2C[C@H](O)C[C@H]2C(=O)N[C@@H](CC(=O)N2CCC(C#Cc3ccc(N4C(=S)N(c5ccc(C#N)c(C(F)(F)F)c5F)C(=O)C4(C)C)cc3)CC2)c2ccc(-c3scnc3C)cc2)C(C)C)on1` (stereo partly drawn) [Compound A176], the DC50 was determined as 62.1 nM. For `CC(C)(C)[C@H](NC(=O)COCCCCOc1ccc(-c2ncc(N3C(=S)N(c4ccc(C#N)c(C(F)(F)F)c4F)C(=O)C3(C)C)cc2F)cc1F)C(=O)N1C[C@H](O)C[C@H]1C(=O)NCc1ccccc1` [Compound A120] the value was 216 nM. The value for `Cc1cc(C(C(=O)N2C[C@H](O)C[C@H]2C(=O)N[C@@H](CC(=O)NCCCOc2ccc(-c3ncc(N4C(=S)N(c5ccc(C#N)c(C(F)(F)F)c5F)C(=O)C4(C)C)cc3F)cc2F)c2ccc(-c3scnc3C)cc2)C(C)C)on1` (stereo partly drawn) [Compound A172] was 170 nM.

In turn, `CC(C)(C)[C@H](NC(=O)COCCCCOc1ccc(-c2ncc(N3C(=S)N(c4ccc(C#N)c(C(F)(F)F)c4F)C(=O)C3(C)C)cc2F)c(C(F)(F)F)c1)C(=O)N1C[C@H](O)C[C@H]1C(=O)NCc1ccccc1` [Compound A132] registered a DC50 of 161 nM. The value for `Cc1ncsc1-c1c[nH]c([C@@H]2C[C@@H](O)CN2C(=O)[C@@H](NC(=O)COCCCCOc2ccc(-c3ccc(N4C(=S)N(c5ccc(C#N)c(C(F)(F)F)c5F)C(=O)C4(C)C)cn3)cc2)C(C)(C)C)n1` [Compound A198] was 42.8 nM; that for `Cc1cc(C(C(=O)N2C[C@H](O)C[C@H]2C(=O)N[C@@H](CC(=O)NCCN2CCC(C#Cc3ccc(N4C(=S)N(c5ccc(C#N)c(C(F)(F)F)c5F)C(=O)C4(C)C)cc3)CC2)c2ccc(-c3scnc3C)cc2)C(C)C)on1` (stereo partly drawn) [Compound A184] was 370 nM. The value for `Cc1cc(C(C(=O)N2C[C@H](O)C[C@H]2C(=O)N[C@@H](CC(=O)N2CCC(C#Cc3ccc(N4C(=S)N(c5ccc(C#N)c(C(F)(F)F)c5F)C(=O)C4(C)C)cn3)CC2)c2ccc(-c3scnc3C)cc2)C(C)C)on1` (stereo partly drawn) [Compound A173] was 78.1 nM; that for `Cc1ncsc1-c1c[nH]c([C@@H]2C[C@@H](O)CN2C(=O)[C@@H](NC(=O)COCCCCOc2ccc(-c3ncc(N4C(=S)N(c5ccc(C#N)c(C(F)(F)F)c5F)C(=O)C4(C)C)cc3F)c(C(F)(F)F)c2)C(C)(C)C)n1` [Compound A165] was 43.8 nM.

The molecule `Cc1ncsc1-c1cn(C)c([C@@H]2C[C@@H](O)CN2C(=O)[C@@H](NC(=O)COCCCCOc2ccc(-c3ccc(N4C(=S)N(c5ccc(C#N)c(C(F)(F)F)c5F)C(=O)C4(C)C)cn3)cc2)C(C)(C)C)n1` [Compound A220] returned a DC50 of 289 nM. The value for `Cc1ncsc1-c1ccc(CNC(=O)[C@@H]2C[C@@H](O)CN2C(=O)[C@@H](NC(=O)COCC(F)(F)CCOc2ccc(-c3ccc(N4C(=S)N(c5ccc(C#N)c(C(F)(F)F)c5F)C(=O)C4(C)C)cn3)cc2)C(C)(C)C)cc1` [Compound A175] was 123 nM; that for `Cc1ncsc1-c1ccc(CNC(=O)[C@@H]2C[C@@H](O)CN2C(=O)[C@@H](NC(=O)CCN2CCN(C(=O)c3ccc(-c4ccc(N5C(=S)N(c6ccc(C#N)c(C(F)(F)F)c6F)C(=O)C5(C)C)cn4)cc3)CC2)C(C)(C)C)cc1` [Compound A58] was 133 nM; that for `CC(C)(C)[C@H](NC(=O)COCCCCOc1ccc(-c2ncc(N3C(=S)N(c4ccc(C#N)c(C(F)(F)F)c4F)C(=O)C3(C)C)cc2F)cc1F)C(=O)N1C[C@H](O)C[C@H]1C(=O)NCc1ccc(C(N)=O)cc1` [Compound A119] was 7.2 nM. `Cc1ncsc1-c1ccc(CNC(=O)[C@@H]2C[C@@H](O)CN2C(=O)[C@@H](NC(=O)COCCCCn2cc(-c3ccc(N4C(=S)N(c5ccc(C#N)c(C(F)(F)F)c5F)C(=O)C4(C)C)cn3)ccc2=O)C(C)(C)C)cc1` [Compound A98]: the DC50 is 281 nM. As for `CC(C)(C)[C@H](NC(=O)COCCCCOc1ccc(-c2ncc(N3C(=S)N(c4ccc(C#N)c(C(F)(F)F)c4F)C(=O)C3(C)C)cc2F)c(C(F)(F)F)c1)C(=O)N1C[C@H](O)C[C@H]1C(=O)NCc1cnco1` [Compound A219], the DC50 stood at 589 nM. For `Cc1ncsc1-c1ccc(CNC(=O)[C@@H]2C[C@@H](O)CN2C(=O)[C@@H](NC(=O)COCC(F)CCOc2ccc(-c3ncc(N4C(=S)N(c5ccc(C#N)c(C(F)(F)F)c5F)C(=O)C4(C)C)cc3F)cc2F)C(C)(C)C)cc1` (stereo partly drawn) [Compound A159], the DC50 was 168 nM.

`CC(C)(C)[C@H](NC(=O)COCCCCOc1ccc(-c2ccc(N3C(=S)N(c4ccc(C#N)c(C(F)(F)F)c4F)C(=O)C3(C)C)cn2)cc1)C(=O)N1C[C@H](O)C[C@H]1c1nc(-c2cncnc2)c[nH]1` [Compound A228] returned a DC50 of 107 nM. For `COc1c(C#N)ccc(N2C(=O)C(C)(C)N(c3cnc(-c4ccc(OC5CCN(C(=O)COc6ccc7c(c6)C(=O)N(C6CCC(=O)NC6=O)C7=O)CC5)cc4F)c(F)c3)C2=S)c1F` (stereo not drawn) [Compound A194] the value was 246 nM. For `CC1(C)C(=O)N(c2ccc(C#N)c(C(F)(F)F)c2F)C(=S)N1c1ccc(C2CC2C(=O)NCCCCNC(=O)COc2cccc3c2C(=O)N(C2CCC(=O)NC2=O)C3=O)nc1` (stereo not drawn) [Compound A26] the value was above 2000 nM; for `Cc1ncsc1-c1ccc(CNC(=O)[C@@H]2C[C@@H](O)CN2C(=O)[C@@H](NC(=O)CCCCCNC(=O)c2ccc(-c3ccc(N4C(=S)N(c5ccc(C#N)c(C(F)(F)F)c5F)C(=O)C4(C)C)cn3)cc2)C(C)(C)C)cc1` [Compound A53], 149 nM. For `CC1(C)C(=O)N(c2ccc(C#N)c(C(F)(F)F)c2F)C(=S)N1c1ccc(-c2ccc(C(=O)NCCNC(=O)COc3cccc4c3C(=O)N(C3CCC(=O)NC3=O)C4=O)cc2)nc1` (stereo not drawn) [Compound A34] the value was 835 nM; for `Cc1ncsc1-c1ccc(CNC(=O)[C@@H]2C[C@@H](O)CN2C(=O)[C@@H]2CCCN2C(=O)COCCCCOc2ccc(-c3ncc(N4C(=S)N(c5ccc(C#N)c(C(F)(F)F)c5F)C(=O)C4(C)C)cc3F)cc2F)cc1` [Compound A142], above 2000 nM; for `Cc1cc(C(C(=O)N2C[C@H](O)C[C@H]2C(=O)N[C@@H](CC(=O)NCCCCCCOc2ccc(-c3ncc(N4C(=S)N(c5ccc(C#N)c(C(F)(F)F)c5F)C(=O)C4(C)C)cc3F)cc2F)c2ccc(-c3scnc3C)cc2)C(C)C)on1` (stereo partly drawn) [Compound A177], 253 nM. For `CC(C)(C)[C@H](NC(=O)COCCCCOc1ccc(-c2ccc(N3C(=S)N(c4ccc(C#N)c(C(F)(F)F)c4F)C(=O)C3(C)C)cn2)cc1)C(=O)N1C[C@H](O)C[C@H]1c1nc(-c2cncs2)c[nH]1` [Compound A203], the DC50 is 71.9 nM. Regarding `Cc1ncsc1-c1ccc(CNC(=O)[C@@H]2C[C@@H](O)CN2C(=O)[C@@H](NC(=O)COCC(F)CCOc2ccc(-c3ccc(N4C(=S)N(c5ccc(C#N)c(C(F)(F)F)c5F)C(=O)C4(C)C)cn3)cc2)C(C)(C)C)cc1` (stereo partly drawn) [Compound A171], the DC50 turned out to be 80.2 nM.

On to `CC1(C)C(=O)N(c2ccc(C#N)c(C(F)(F)F)c2F)C(=S)N1c1ccc(-c2ccc(C(=O)N3CCN(C(=O)COc4cccc5c4C(=O)N(C4CCC(=O)NC4=O)C5=O)CC3)cc2)nc1` (stereo not drawn) [Compound A45], for which the DC50 is above 2000 nM. `CC1(C)C(=O)N(c2ccc(C#N)c(C(F)(F)F)c2F)C(=S)N1c1cnc(-c2ccc(OC3CCN(C(=O)COc4cccc5c4C(=O)N(C4CCC(=O)NC4=O)C5=O)CC3)c(F)c2)c(F)c1` (stereo not drawn) [Compound A43] yielded a DC50 of 88.3 nM. The value for `Cc1ncsc1-c1ccc(CNC(=O)[C@@H]2C[C@@H](O)CN2C(=O)[C@@H](NC(=O)CCN2CCC(Oc3ccc(-c4ncc(N5C(=S)N(c6ccc(C#N)c(C(F)(F)F)c6F)C(=O)C5(C)C)cc4F)cc3F)CC2)C(C)(C)C)cc1` [Compound A104] was 241 nM.
